This is an account of results in patent US20120028265A1, “METHODS OF USING RET NANOSENSORS” (priority 2007, published 2012).

Assay [1] concerns the target FLIParaF.Ec-200n, FRET nanosensor: E. coli K12 AraF (L-arabinose binding protein) fused between eCFP and Venus (Escherichia coli, UniProt P02924). The assay is described as follows: In vitro FRET titration of purified arabinose nanosensor. The note with it: D/L-arabinose; apparent; purified sensor, 20 mM MOPS pH 7.0, Venus/eCFP emission ratio 528/485 nm, single-site isotherm. An excerpt: The araF gene (EMBL: K00420) was amplified from Escherichia coli K12 genomic DNA using homologous primers, resulting in a PCR product that consisted of araF without stopcodon flanked by phage lambda attB recombination sites. The araF gene was fused between eCFP and Venus coding sequences of pGW1 through pDONR (Invitrogen) using […] (Invitrogen), respectively. The final construct was denoted pGW1araF.Ec and the correct sequence of the araF gene was verified by DNA sequencing (Sequetech). The gene product encoded on pGW1araF.Ec was denoted FLIParaF.Ec-200n.
The eCFP emission used for the ratio calculation was determined at 485 nm. Protein was diluted to give Venus/eYFP readouts of 20,000 to 30,000 at a manual gain between 70-75. By using the change in FRET ratio upon binding of ligand, affinity constants (Kd) were determined by fitting the titration curves to a single-site-binding isotherm:
R=Rapo+(Rsat−Rapo)·(n·[L])/(Kd+[L])
with [L], ligand concentration; n, number of equal binding sites; R, ratio; Rapo, ratio in the absence of ligand; and Rsat, ratio at saturation with ligand. Three independent protein preparations were analyzed and each protein preparation was analyzed in triplicate.

Assay [2] has as its target FLII12Pglu700μ-δ6 glucose nanosensor (Escherichia coli, UniProt P0AEE5). The class given is binding. The note with it: read-out: Kd, affinity constant of nanosensor; used for theoretical saturation curve.
Procedure: (A) Theoretical curve of glucose-induced FRET changes of FLII12Pglu700μ-δ6. […] Light gray shaded area indicates 10-90% confidence range of FLII12Pglu700μ-δ6 detection range, the dark gray shaded area indicates 20-80% confidence range. (B) Effect of the variation in ratio data (SD) on the determination of glucose concentrations. […] The calculated glucose concentration from the average of ratio data was set as 100%. In vivo glucose concentration was calculated from the equation: [gluc]vivo=Kd×(Δr−1)/(ΔRmax−Δr) with [G], glucose concentration; Kd, affinity constant of nanosenor; Δr, partial ratio change; ΔRmax, maximum ratio change. (C) Examples of in vivo glucose concentration dynamics upon cell perfusion and nanosenor range of FLII12Pglu700μ-δ6. The glucose concentration dynamics within the nanosenor range report differences in 1) accumulation rate, 2) elimination rate, 3) steady-state level, and 4) delay in nanosenor response. Gray lines indicate real in vivo glucose concentration dynamics and black lines indicate the nanosenor saturation of FLII12Pglu700μ-δ6. (D) In vivo glucose concentration-time plot (black line) with ratio ±SD and confidence range (grey lines) of FLII12Pglu700μ-δ6.
The target of assay [3] is glucose nanosensor (not named in Example 9). The note with it: read-out: affinity constant for glucose.
Procedure: The confidence range for calculation of intracellular glucose concentrations is determined by the quality of the recorded sensor response data. As a rule of thumb, data with standard deviations off ±2.5% and ±5% can be interpreted between 10% and 90% and between 20% and 80% saturation, respectively. Monitoring the sensor response in presence of alternating analyte concentrations yields information about transport and metabolism in the targeted subcellular compartment from (1) the intracellular accumulation rate upon addition of the analyte, which is composed of influx rate minus metabolism and export rates, (2) the elimination rate when the analyte is removed, which is composed of export plus metabolism minus influx, (3) the steady state level of the sensor response, in which influx equals metabolism and efflux, and (4) the time delay before a sensor response can be recorded, which represents differences in influx rates or metabolism.
For assay [4], the system named is E. coli L-arabinose binding protein AraF, unmodified. The following applies: tryptophan fluorescence spectroscopy, read-out: affinity (Kd); cited from earlier work.

FLIParaF.Ec-200n, FRET nanosensor: E. coli K12 AraF (L-arabinose binding protein) fused between eCFP and Venus, sequence (P02924 24-329): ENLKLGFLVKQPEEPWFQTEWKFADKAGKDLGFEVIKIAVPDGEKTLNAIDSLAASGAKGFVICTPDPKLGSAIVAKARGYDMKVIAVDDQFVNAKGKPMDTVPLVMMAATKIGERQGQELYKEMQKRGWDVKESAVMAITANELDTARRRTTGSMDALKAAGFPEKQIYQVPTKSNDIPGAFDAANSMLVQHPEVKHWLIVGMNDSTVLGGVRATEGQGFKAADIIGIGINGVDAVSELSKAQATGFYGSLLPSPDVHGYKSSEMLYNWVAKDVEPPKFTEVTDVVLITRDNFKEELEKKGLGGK
FLII12Pglu700μ-δ6 glucose nanosensor, sequence (P0AEE5 24-332 limits assumed): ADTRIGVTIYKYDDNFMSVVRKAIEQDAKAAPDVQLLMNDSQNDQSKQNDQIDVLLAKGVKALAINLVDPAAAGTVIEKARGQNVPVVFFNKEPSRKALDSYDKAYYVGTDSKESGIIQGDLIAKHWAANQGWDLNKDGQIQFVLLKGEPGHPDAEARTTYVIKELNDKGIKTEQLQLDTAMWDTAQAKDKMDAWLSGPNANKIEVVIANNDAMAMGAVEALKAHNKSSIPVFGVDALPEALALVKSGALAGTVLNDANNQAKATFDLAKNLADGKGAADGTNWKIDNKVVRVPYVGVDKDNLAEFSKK

As to `OC1COC(O)C(O)C1O` (racemic) [D/L-arabinose], the Kd in assay [1] was 0.23 ± 0.018 µM.
For `OC[C@H]1OC(O)[C@H](O)[C@@H](O)[C@@H]1O` (stereo partly shown) [glucose], the Kd in assay [2] was 660 µM; in assay [3], 600 µM.
Turning to `OC1OC[C@H](O)[C@H](O)[C@H]1O` (stereo partly drawn) [L-arabinose], in assay [4], the Kd was 0.098 ± 0.033 µM.
